1 compound from US20240041830A1, “CIRCULATING BIOMARKERS OF RESPONSE TO PD-1/PD-L1 BLOCKADE AND GSK-3 INHIBITION” (Brown University, priority 2022, published 2024) can be followed below.

Common to all, as to format: cell-based, human
The subject of one assay is HCT-116. As to the kind of experiment: Western blot analysis. On the procedure:
(§1) Pyroptosis assay. Recombinant Human TNF-α (Cat #300-01A, PeproTech, Rocky Hill, NJ, USA) and Recombinant Human IFN-γ (Cat #300-02, PeproTech, Rocky Hill, NJ, USA) were purchased for use in western blot analysis while rhTRAIL was generated in-house. See Kim et al., J. Biol. Chem., 279, 40044-40052 (2004).
(§2) Western blot analysis. Cells were plated in a 6-well plate and incubated overnight before the spent media was replaced with drugged media. Drug treatment lasted for indicated durations. Protein was extracted using radioimmunoprecipitation (RIPA) assay buffer (Cat #R0278, Sigma-Aldrich, St. Louis, MO, USA) containing cOmplete™, Mini, EDTA-free Protease Inhibitor Cocktail (Cat #4693159001, Roche, Basel, Switzerland) from sub-confluent cells. Denaturing sample buffer was added, samples were boiled at 95° C. for ten minutes, and an equal amount of protein lysate was electrophoresed through NuPAGE™ 4 to 12%, bis-Tris, 1.5 mm, Mini Protein Gels (Invitrogen, Waltham, MA, USA) then transferred to PVDF membranes. The PVDF membrane was blocked with 5% non-fat milk (Sigma-Aldrich, St. Louis, MO, USA) in 1× TTBS. Primary antibodies were incubated with the transferred PVDF membrane in blocking buffer at 4° C. overnight. Secondary antibodies included Goat anti-Rabbit IgG (H+L) Secondary Antibody, HRP (Cat #31460, Invitrogen, Waltham, MA, USA), and Goat anti-Mouse IgG (H+L) Secondary Antibody, HRP (Cat #31430, Invitrogen, Waltham, MA, USA). The signal was detected using Pierce™ ECL Western Blotting Substrate (Cat #32106, Thermo Scientific, Waltham, MA, USA) and a Syngene Imaging System (RRID: SCR_015770).
(§3) Elraglusib uprequlates tumor cell PD-L1 and proapoptotic pathway expression as well as downregulates immunosuppressive/angiogenic protein expression and pro-survival pathways. The inventors performed Western blot analyses on colorectal cancer cells (HCT-116, HT-29) treated with elraglusib over a 72-hour time course. […] The inventors observed increases in PD-L1 expression as the treatment duration increased. To further elucidate the elraglusib-mediated effects on tumor cell survival, the inventors probed for survival factors Bcl-2 and Survivin and noted decreases in protein expression in both cell lines, especially at the later timepoints (forty-eight hours, seventy-two hours). […] HCT116 cells are heterozygous for β-catenin, harboring one wild-type allele and one mutant allele with inactivation of one of the residues phosphorylated by GSK-3β that is frequently mutated in tumors. Kaler, Augenlicht, & Klampfer, PLoS ONE, 7, e45462 (2012). HT-29, KM12C, and SW480 cells harbor APC mutations. Rowan et al., Proc. Natl. Acad. Sci. USA, 97, 3352 (2000).

The next assay relates to HT-29. As to the kind of experiment: Western blot analysis. On the procedure: as §1, §2, §3
Assay [1] has as its system patient-derived CD8+ T cells. As to the kind of experiment: ex vivo cytokine profiling of supernatant (Luminex). The following applies: forty-eight hours (1 NM) vs DMSO. On the procedure: Human cytokine profiling. Human cell line culture supernatants were analyzed using an R&D systems Human Premixed Multi-Analyte Kit (R&D Systems, Inc., Minneapolis, MN, USA) and a Luminex 200 (RRID: SCR_018025) Instrument (LX200-XPON-RUO, Luminex Corporation, Austin, TX, USA) according to the manufacturer's instructions. Sample levels of TNF-α, 4-1BB/TNFRSF9/CD137, IL-8/CXCL8, Ferritin, IFN-β, IL-10, CCL2/JE/MCP-1, VEGF, CXCL13/BLC/BCA-1, IFN-γ, CCL20/MIP-3 α, CCL3/MIP-1 α, CCL22/MDC, CCL4/MIP-1 β, Fas Ligand/TNFSF6, IL-17/1L-17A, IL-2, BAFF/BLyS/TNFSF13B, GM-CSF, CXCLS/ENA-78, TRANCE/TNFSF11/RANK L, CXCL9/MIG, G-CSF, IFN-γ R1/CD119, VEGFR3/Flt-4, C-Reactive Protein/CRP, CXCL11/I-TAC, IL-21, CXCL14/BRAK, IL-6, Fas/TNFRSF6/CD95, TRAIL R3/TNFRSF10C, IL-4, CCL5/RANTES, PD-L1/137-H1, CCL7/MCP-3/MARC, Chitinase 3-like 1, CXCL10/IP-10/CRG-2, IL-1 μ/IL-1F2, IL-7, Prolactin, CCL8/MCP-2, TRAIL R2/TNFRSF10B, M-CSF, IL-15, Granzyme B, IFN-α, TREM-1, IL-12/1L-23 p40, TRAIL/TNFSF10, CCL11/Eotaxin, and 1L-18/1L-1F4. Quantitative analysis with 6 standards and a minimum of 50 counts per bead region was used with the Luminex to generate analyte values reported as picograms/milliliter (pg/mL). Sample concentrations less than the lower limit of detection for each particular analyte were recoded as the lower limit value divided by 10. Sample concentrations above the upper limit of detection for a particular analyte were recoded as the upper limit of detection.
The inventors collected peripheral blood during the patient's best response at fifteen months, corresponding with their lowest concentration of sIL-2 r in the peripheral blood, and isolated CD8+, non-ATLL T cells for further analysis. The inventors then treated these CD8+ cells ex vivo with elraglusib and assessed changes in cytokine, chemokine, and growth factor profiles in the cell culture supernatant using Luminex (LX200) technology and a custom cytokine panel described by Huntington, Louie, Zhou, & EI-Deiry, A high-throughput customized cytokinome screen of colon cancer cell responses to small-molecule oncology drugs. Oncotarget, 12, 1980-1991 (2021).
Treatment of patient-derived CD8+ T cells with elraglusib increases granzyme B, TRAIL, and IFN-gamma secretion while decreasing VEGF, TNF-alpha, and CCL5/RANTES concentrations in cell culture supernatant in comparison to control groups. Patient-derived CD8+ cytotoxic T cells were treated with elraglusib for forty-eight hours (1 NM) or control (DMSO) and cytokine concentration was measured in cell culture supernatants. (Statistical significance was calculated with GraphPad Prism 9.3.1 using unpaired t tests and is denoted on each plot as follows: P>0.05=n.s., P≤0.05=*, P≤0.01=**, P≤0.001=***, and P≤0.0001=**** (N=3).

Where [2] appears, read: as treatment duration increased.
Where [3] appears, read: especially forty-eight, seventy-two hours.
Setting [4] is: low dose, until the 48-hour timepoint.

`Cn1cc(C2=C(c3coc4ccc(F)cc34)C(=O)NC2=O)c2cc3c(cc21)OCO3` [elraglusib]: the “NF-κB p65 expression” value with HCT-116 (72-hour time course) is “decreased expression”. The PD-L1 expression result in the assay on HCT-116 (setting [2]) is on record as “increases”. Besides, in the assay on HCT-116 (by the 24-hour timepoint), the Mcl-1 protein expression entry was “marked decreases”. In addition, in the assay on HCT-116 (setting [3]), the Bcl-2 protein expression entry was “decreases” and the Survivin protein expression result was “decreases”. In addition, the “cleaved PARP (cPARP)” value in the assay with HCT-116 (setting [4]) is “little to no cleaved PARP”. Moreover, in the assay on HT-29 (72-hour time course), the “NF-κB p65 expression” value is listed as “decreased expression”. Besides, the PD-L1 expression result with HT-29 (setting [2]) is given as “increases”. Moreover, in the assay on HT-29 (setting [3]), the Bcl-2 protein expression entry is reported as “decreases” and the Survivin protein expression entry is reported as “decreases”. The “cleaved PARP (cPARP)” value in the assay with HT-29 (setting [4]) is given as “little to no cleaved PARP”. In assay [1], the “CCL5/RANTES concentration in supernatant” value is reported as “decreasing”, the IFN-gamma secretion entry is given as “increases”, the “TNF-alpha concentration in supernatant” value is on record as “decreasing” and the TRAIL secretion entry was “increases”. In assay [1], the “VEGF concentration in supernatant” value is “decreasing” and the “granzyme B secretion” value is on record as “increases”.
